Measurements from US6071707A, “Phosphotyrosine mimics and method for identifying and using same” (Boehringer Ingelheim Pharmaceuticals, Inc., priority 1997, dated 2000).

System: anti-phosphotyrosine antibody (MAb PY-20)
Experiment: Method for identifying phosphotyrosine mimics: competitive binding to anti-phosphotyrosine antibody (ELISA)
Set-up: species or system mouse
Conditions: ELISA criterion: 50% or greater inhibition of anti-phosphotyrosine binding 15 μg/ml; biotinylated peptide ECQ(pY)QPQP
Source text: The present invention also provides a convenient and sensitive method for identifying phosphotyrosine mimics by utilizing anti-phosphotyrosine antibodies to rapidly screen large numbers of non-phosphorylated test compounds. Specifically, this method comprises the steps of:
(a) contacting a non-phosphorylated test compound and a phosphotyrosine-containing substance with an anti-phosphotyrosine antibody; and
(b) detecting the ability of the non-phosphorylated test compound to inhibit the binding of the anti-phosphotyrosine antibody to the phosphotyrosine-containing substance.
A 96 well microtiter plate (Pierce #15126, Reacti-Bind Streptvidin coated polystyrene) was coated with 100 μl of biotinylated peptide ECQ(pY)QPQP (MW=1367.5) at a concentration of 15 nM in Tris Buffered Saline (TBST) (10 mM Tris.HCl, pH 7.5, 100 mM NaCl, 0.1% Tween 20) for 45 minutes at room temperature. The microtiter plate was washed 4 times with TBST. MAb PY-20 (Zymed #03-7799) was pre incubated for 45 minutes at a 2× concentration of 0.078 μg/ml ([…]) with a 2× concentration of non-phosphorylated test compounds in TBST. 100 μl of test compound/antibody solution was added in duplicate to each of the wells and incubated at room temperature. The microtiter plate was washed 4 times with TBST. […] Optical density was measured at 405 nm. […]

## O=C(O)c1ccccc1 [phenyl carboxylic acid]
  identification as phosphotyrosine mimic (inhibition of anti-phosphotyrosine antibody binding to a phosphotyrosine-containing substance): identified as a phosphotyrosine mimic
